# Reference: US9840478B2 (MERCK SHARP & DOHME CORP., priority 2013, dated 2017)
# Test system: HIV-1 (H9IIIB strain)
# Experiment: Cell-based HIV infection assay using a reporter (Cell-Based), MT4-GFP cells
# Details: Human immunodeficiency virus 1, MT4-GFP cells infected with HIV-1 H9IIIB; 50% normal human serum; mean of at least two independent experiments; read-out: Cell-based IP
# In short: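 IC50 from 4-parameter dose-response of % viral growth inhibition, using the 48 h/24 h infected-cell ratio scaled between DMSO and a protease/integrase/NNRTI triple-drug control. Assay used MT4 cells with HIV-LTR-GFP reporter, pre-infected 24 h with HIV-1 H9IIIB, in 50% normal human serum.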
row,SMILES,IC50
1,"COC(=O)N[C@H](C(=O)Nc1cccc(F)c1CC[C@H]1CNC[C@H](C)N1S(C)(=O)=O)[C@@H](c1ccc(Cl)cc1)c1ccc(OC)nc1 [Example 165, (βS)-4-chloro-N-(3-fluoro-2-{2-[(2S,6S)-6-methyl-1-(methylsulfonyl)piperazin-2-yl]ethyl}phenyl)-Nα-(methoxycarbonyl)-β-(6-methoxypyridin-3-yl)-L-phenylalaninamide]",0.017 µM
2,"C[C@H]1CNC[C@H](CCc2c(F)cncc2NC(=O)[C@@H](N)[C@@H](c2ccc(Cl)cc2)c2cccc(F)c2)N1S(=O)(=O)C1CC1 [Example 166, (βS)-4-chloro-N-(4-{2-[(2S,6S)-1-(cyclopropylsulfonyl)-6-methylpiperazin-2-yl]ethyl}-5-fluoropyridin-3-yl)-β-(3-fluorophenyl)-L-phenylalaninamide]",0.029 µM
3,"C[C@H]1CNC[C@H](CCc2c(F)cccc2NC(=O)[C@@H](N)[C@@H](c2ccc(Cl)cc2)c2cccc(F)c2)N1S(=O)(=O)C1CC1 [Example 167, (βS)-4-chloro-N-(2-{2-[(2S,6S)-1-(cyclopropylsulfonyl)-6-methylpiperazin-2-yl]ethyl}-3-fluorophenyl)-β-(3-fluorophenyl)-L-phenylalaninamide]",0.031 µM
4,"COC(=O)N[C@H](C(=O)Nc1cccc(F)c1CC[C@H]1CNC[C@H](C)N1S(=O)(=O)C1CC1)[C@@H](c1ccc(Cl)cc1)c1cccc(F)c1 [Example 168, (βS)-4-chloro-N-(2-{2-[(2S,6S)-1-(cyclopropylsulfonyl)-6-methylpiperazin-2-yl]ethyl}-3-fluorophenyl)-β-(3-fluorophenyl)-Nα-(methoxycarbonyl)-L-phenylalaninamide]",0.019 µM
5,"C[C@@H]1CNC[C@H](CCc2c(F)cccc2NC(=O)[C@@H](N)[C@H](c2cccc(F)c2)c2cccc(Cl)c2)N1S(C)(=O)=O [Example 169, (βR)-3-chloro-N-(3-fluoro-2-{2-[(2S,6R)-6-methyl-1-(methylsulfonyl)piperazin-2-yl]ethyl}phenyl)-β-(3-fluorophenyl)-L phenylalaninamide]",0.17 µM
6,"C[C@H]1CNC[C@H](CCc2c(F)cccc2NC(=O)[C@@H](N)C(c2cccc(F)c2)c2cccc(F)c2)N1S(C)(=O)=O [Example 170, 3-fluoro-N-(3-fluoro-2-{2-[(2S,6S)-6-methyl-1-(methylsulfonyl)piperazin-2-yl]ethyl}phenyl)-β-(3-fluorophenyl)-L-phenylalaninamide]",0.06 µM
7,"COC(=O)N[C@H](C(=O)Nc1cccc(F)c1CC[C@H]1CNC[C@H](C)N1S(C)(=O)=O)C(c1cccc(F)c1)c1cccc(F)c1 [Example 171, 3-fluoro-N-(3-fluoro-2-{2-[(2S,6S)-6-methyl-1-(methylsulfonyl)piperazin-2-yl]ethyl}phenyl)-β-(3-fluorophenyl)-Nα-(methoxycarbonyl)-L-phenylalaninamide]",0.026 µM
8,"C[C@H]1CNC[C@H](CCc2c(F)cccc2NC(=O)[C@@H](N)[C@H](c2cccc(F)c2)c2cccc(Cl)c2)N1S(C)(=O)=O [Example 172, (βR)-3-chloro-N-(3-fluoro-2-{2-[(2S,6S)-6-methyl-1-(methylsulfonyl)piperazin-2-yl]ethyl}phenyl)-β-(3-fluorophenyl)-L-phenylalaninamide]",0.18 µM
9,"COC(=O)N[C@H](C(=O)Nc1cccc(F)c1CC[C@H]1CNC[C@@H](C)N1S(C)(=O)=O)[C@H](c1cccc(F)c1)c1cccc(Cl)c1 [Example 173, (βR)-3-chloro-N-(3-fluoro-2-{2-[(2S,6R)-6-methyl-1-(methylsulfonyl)piperazin-2-yl]ethyl}phenyl)-β-(3-fluorophenyl)-Nα-(methoxycarbonyl)-L-phenylalaninamide]",0.09 µM
10,"COC(=O)N[C@H](C(=O)Nc1cccc(F)c1CC[C@H]1CNC[C@H](C)N1S(C)(=O)=O)[C@H](c1cccc(F)c1)c1cccc(Cl)c1 [Example 174, (βR)-3-chloro-N-(3-fluoro-2-{2-[(2S,6S)-6-methyl-1-(methylsulfonyl)piperazin-2-yl]ethyl}phenyl)-β-(3-fluorophenyl)-Nα-(methoxycarbonyl)-L-phenylalaninamide]",0.099 µM
11,"COC(=O)N[C@H](C(=O)Nc1cccc(F)c1CC[C@H]1CNC[C@H](C)N1S(=O)(=O)C1CC1)[C@H](c1cccc(F)c1)c1cccc(Cl)c1 [Example 175, (βR)-3-chloro-N-(2-{2-[(2S,6S)-1-(cyclopropylsulfonyl)-6-methylpiperazin-2-yl]ethyl}-3-fluorophenyl)-β-(3-fluorophenyl)-Nα-(methoxycarbonyl)-L-phenylalaninamide]",0.11 µM
12,"C[C@H]1CNC[C@H](CCc2c(F)cccc2NC(=O)[C@@H](N)[C@H](c2cccc(F)c2)c2cccc(Cl)c2)N1S(=O)(=O)C1CC1 [Example 176, (βR)-3-chloro-N-(2-{2-[(2S,6S)-1-(cyclopropylsulfonyl)-6-methylpiperazin-2-yl]ethyl}-3-fluorophenyl)-β-(3-fluorophenyl)-L-phenylalaninamide]",0.19 µM
13,"CC(C)[C@H](c1ccc(Cl)cc1)[C@H](N)C(=O)Nc1cncc(F)c1CC[C@H]1CNC[C@H](C)N1S(=O)(=O)C1CC1 [Example 177, (βR)-4-chloro-N-(4-{2-[(2S,6S)-1-(cyclopropylsulfonyl)-6-methylpiperazin-2-yl]ethyl}-5-fluoropyridin-3-yl)-β-(1-methylethyl)-L-phenylalaninamide]",0.095 µM
14,"CC(C)[C@H](c1ccc(Cl)cc1)[C@H](N)C(=O)Nc1cncc(F)c1CC[C@H]1CNC[C@@H](C)N1S(=O)(=O)C1CC1 [Example 178, (βR)-4-chloro-N-(4-{2-[(2S,6R)-1-(cyclopropylsulfonyl)-6-methylpiperazin-2-yl]ethyl}-5-fluoropyridin-3-yl)-β-(1-methylethyl)-L-phenylalaninamide]",0.34 µM
15,"COC(=O)N[C@H](C(=O)Nc1cncc(F)c1CC[C@H]1CNC[C@H](C)N1S(=O)(=O)C1CC1)[C@@H](c1ccc(Cl)cc1)C(C)C [Example 179, (βR)-4-chloro-N-(4-{2-[(2S,6S)-1-(cyclopropylsulfonyl)-6-methylpiperazin-2-yl]ethyl}-5-fluoropyridin-3-yl)-Nα-(methoxycarbonyl)-β-(1-methylethyl)-L-phenylalaninamide]",0.033 µM
16,"COC(=O)N[C@H](C(=O)Nc1cncc(F)c1CC[C@H]1CNC[C@@H](C)N1S(=O)(=O)C1CC1)[C@@H](c1ccc(Cl)cc1)C(C)C [Example 180, (βR)-4-chloro-N-(4-{2-[(2S,6R)-1-(cyclopropylsulfonyl)-6-methylpiperazin-2-yl]ethyl}-5-fluoropyridin-3-yl)-Nα-(methoxycarbonyl)-β-(1-methylethyl)-L-phenylalaninamide]",0.069 µM
17,"C[C@@H]1CNC[C@H](CCc2c(F)cccc2NC(=O)[C@@H](N)C(c2cccc(F)c2)c2cccc(F)c2)N1S(=O)(=O)C1CC1 [Example 181, N-(2-{2-[(2S,6R)-1-(cyclopropylsulfonyl)-6-methylpiperazin-2-yl]ethyl}-3-fluorophenyl)-3-fluoro-β-(3-fluorophenyl)-L-phenylalaninamide]",0.17 µM
18,"C[C@@H]1CNC[C@H](CCc2c(F)cncc2NC(=O)[C@@H](N)[C@@H](c2ccc(Cl)cc2)C2CCOCC2)N1S(C)(=O)=O [Example 182, (βR)-4-chloro-N-(5-fluoro-4-{2-[(2S,6R)-6-methyl-1-(methylsulfonyl)piperazin-2-yl]ethyl}pyridin-3-yl)-β-(tetrahydro-2H-pyran-4-yl)-L-phenylalaninamide]",0.13 µM
19,"COC(=O)N[C@H](C(=O)Nc1cccc(F)c1CC[C@H]1CNC[C@@H](C)N1S(C)(=O)=O)[C@@H](c1ccc(Cl)cc1)C1CCOCC1 [Example 183, (βR)-4-chloro-N-(3-fluoro-2-{2-[(2S,6R)-6-methyl-1-(methylsulfonyl)piperazin-2-yl]ethyl}phenyl)-Nα-(methoxycarbonyl)-β-(tetrahydro-2H-pyran-4-yl)-L-phenylalaninamide]",0.067 µM
20,"COC(=O)N[C@H](C(=O)Nc1cccc(F)c1CC[C@H]1CNC[C@@H](C)N1S(=O)(=O)c1ccccc1)[C@@H](c1ccc(Cl)cc1)c1cccc(F)c1 [Example 184, (βS)-4-chloro-N-(3-fluoro-2-{2-[(2S,6R)-6-methyl-1-(phenylsulfonyl)piperazin-2-yl]ethyl}phenyl)-β-(3-fluorophenyl)-Nα-(methoxycarbonyl)-L-phenylalaninamide]",0.025 µM
21,"COC(=O)N[C@H](C(=O)Nc1cccc(F)c1CC[C@H]1CNC[C@H](C)N1S(=O)(=O)c1ccccc1)[C@@H](c1ccc(Cl)cc1)c1cccc(F)c1 [Example 185, (βS)-4-chloro-N-(3-fluoro-2-{2-[(2S,6S)-6-methyl-1-(phenylsulfonyl)piperazin-2-yl]ethyl}phenyl)-β-(3-fluorophenyl)-Nα-(methoxycarbonyl)-L-phenylalaninamide]",0.028 µM
22,"COc1ccc(S(=O)(=O)N2[C@@H](CCc3c(F)cccc3NC(=O)[C@@H](N)[C@@H](Cc3ccc(F)cc3)c3ccc(Cl)cc3)CNC[C@@H]2C)cc1 [Example 186, (βS)-4-chloro-β-(4-fluorobenzyl)-N-[3-fluoro-2-(2-{(2S,6S)-1-[(4-methoxyphenyl)sulfonyl]-6-methylpiperazin-2-yl}ethyl)phenyl]-L-phenylalaninamide]",0.086 µM
23,"COC(=O)N[C@H](C(=O)Nc1cccc(F)c1CC[C@H]1CNC[C@H](C)N1S(=O)(=O)c1ccc(OC)cc1)[C@@H](Cc1ccc(F)cc1)c1ccc(Cl)cc1 [Example 187, (βS)-4-chloro-β-(4-fluorobenzyl)-N-[3-fluoro-2-(2-{(2S,6S)-1-[(4-methoxyphenyl)sulfonyl]-6-methylpiperazin-2-yl}ethyl)phenyl]-Nα-(methoxycarbonyl)-L-phenylalaninamide]",0.035 µM
24,"COc1ccc([C@H](c2ccc(Cl)cc2)[C@H](N)C(=O)Nc2cccc(F)c2CC[C@H]2CNC[C@H](C)N2S(=O)(=O)c2ccc(OC(F)(F)F)cc2)cn1 [Example 188, (βS)-4-chloro-N-(3-fluoro-2-{2-[(2S,6S)-6-methyl-1-{[4-(trifluoromethoxy)phenyl]sulfonyl}piperazin-2-yl]ethyl}phenyl)-β-(6-methoxypyridin-3-yl)-L-phenylalaninamide]",0.055 µM
